# Assay results from PubChem BioAssay AID846 (PCMD, 2007).
# Records with an inconclusive call do not appear. Calls of active or inactive are those of the source. The rule behind the calls is not given here.
# Target: Coagulation factor XI (Homo sapiens) (UniProt P03951)
# Experiment: FXIa inhibitor IC50 values, dose response, biochemical, hits from 1536-well screen (AID 846)
# Conditions: purified human plasma factor XIa, fluorogenic AMC substrate, 384-well, 2 h
# Sequence of Coagulation factor XI (Homo sapiens) (P03951 19-387 limits assumed): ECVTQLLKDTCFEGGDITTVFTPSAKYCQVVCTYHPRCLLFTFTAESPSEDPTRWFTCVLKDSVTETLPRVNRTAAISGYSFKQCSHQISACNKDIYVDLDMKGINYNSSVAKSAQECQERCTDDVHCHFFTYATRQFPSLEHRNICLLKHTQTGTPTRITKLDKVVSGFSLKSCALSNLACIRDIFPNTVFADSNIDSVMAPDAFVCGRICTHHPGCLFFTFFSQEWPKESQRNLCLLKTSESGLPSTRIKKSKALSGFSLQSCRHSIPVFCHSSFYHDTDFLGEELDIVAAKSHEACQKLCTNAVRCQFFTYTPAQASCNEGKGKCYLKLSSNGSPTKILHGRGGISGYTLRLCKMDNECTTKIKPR
# Sequence of Coagulation factor XI (Homo sapiens) (P03951 388-625 limits assumed): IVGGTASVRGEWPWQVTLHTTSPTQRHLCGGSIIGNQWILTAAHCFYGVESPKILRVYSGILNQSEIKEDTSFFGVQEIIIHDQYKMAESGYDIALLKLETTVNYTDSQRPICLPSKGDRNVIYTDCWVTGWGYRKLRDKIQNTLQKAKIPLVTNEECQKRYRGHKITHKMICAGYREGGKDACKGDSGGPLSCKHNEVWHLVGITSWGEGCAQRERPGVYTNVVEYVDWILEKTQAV
row,SMILES,IC50
1,CCc1ccccc1N1C(=O)CC(=O)NC1=O,> 50 µM (inactive)
2,COc1cc(/C=N/Nc2cc(C)nc(NS(=O)(=O)c3ccccc3)n2)ccc1O,> 50 µM (inactive)
3,O=C1CC(N2CCC(c3nc4ccccc4o3)CC2)C(=O)N1c1ccc(Cl)c(C(F)(F)F)c1 (stereo not drawn),> 50 µM (inactive)
4,O=C1CC(Sc2ccc(Cl)cc2)C(=O)N1c1ccc2c(c1)OCCO2 (stereo not drawn),> 50 µM (inactive)
5,C=CCOC(=O)C1=C(C)Nc2[nH]c(=O)[nH]c(=O)c2C1c1ccccc1 (stereo not drawn),> 50 µM (inactive)
6,Brc1cccc(/C=N/Nc2nn[nH]n2)c1,> 50 µM (inactive)
7,Oc1ccc(/C=N/Nc2nc(-c3cccnc3)nc3ccccc23)c(O)c1,> 50 µM (inactive)
8,Cc1cccc(NC(=O)c2cc(N3C(=O)CCC3=O)ccc2Cl)n1,> 50 µM (inactive)
